Results on one compound are retold here after patent publication US7807662B2, “Platinum IV complex inhibitor” (University of South Florida, priority 2004, dated 2010).

Assay [1] has as its target T1, Stat3 (Homo sapiens, UniProt P40763).
T1 construct: nuclear extracts of equal total protein containing active Stat1, Stat3 and Stat5 were pre-incubated with different concentrations of IS3 295; endogenous in cells; host or cells: nuclear extracts
In words: In vitro DNA-binding activity assay with EMSA, Stat3. The class given is biochemical. As to conditions: hSIE probe, pre-incubation with compound. The procedure:
(§1) Nuclear extract preparation and gel shift assays—Nuclear extract preparation from v-Src-transformed fibroblasts (NIH3T3/v-Src) or tumor cell lines and electrophoretic mobility shift assay were carried out as previously described (11, 13, 37). The ^32P-labeled oligonucleotide probes used were hSIE (high affinity sis-inducible element, m67 variant, 5′-[…]) (SEQ ID NO:1) that bound Stat1 and Stat3 (13, 45) and MGFe (mammary gland factor element from the bovine β-casein gene promoter, 5′-AGATTTCTAGGAATTCAA) (SEQ ID NO:2) for Stat1 and Stat5 binding (46, 47). Except where indicated, inhibitor compound was pre-incubated with the nuclear extract for 30 minutes at room temperature prior to incubation with radiolabeled probe.
(§2) Compounds from the NCI diversity set were evaluated for inhibition of Stat3 signaling in in vitro DNA-binding activity assay with analysis of electrophoretic mobility shift assay (EMSA). A platinum (IV) complex, IS3 295 (NSC 295558) (FIG. 1E), was identified as potent inhibitor of Stat3, which was further characterized in a number of assays for its anti-Stat3 property. […]

The subject of the next assay is Stat5. As to the kind of experiment: In vitro DNA-binding activity assay with EMSA, Stat5. As to conditions: MGFe probe. It counts as biochemical. The procedure:
as §1, §2

In the next assay the target is E2F1 (Homo sapiens, UniProt Q01094). In words: In vitro DNA-binding activity assay with EMSA, E2F1 (control). The class given is biochemical. As to conditions: DHFR promoter sequence probe. The source says: In control studies, the effect of IS3 295 was investigated on the DNA-binding activity of E2F1 that was unrelated to Stat proteins.
Another assay addresses T2, Stat1 (Homo sapiens, UniProt P42224).
T2 construct: nuclear extracts of equal total protein containing active Stat1, Stat3 and Stat5 were pre-incubated with different concentrations of IS3 295; endogenous in cells; host or cells: nuclear extracts
T2 sequence (P42224 2-750 limits assumed): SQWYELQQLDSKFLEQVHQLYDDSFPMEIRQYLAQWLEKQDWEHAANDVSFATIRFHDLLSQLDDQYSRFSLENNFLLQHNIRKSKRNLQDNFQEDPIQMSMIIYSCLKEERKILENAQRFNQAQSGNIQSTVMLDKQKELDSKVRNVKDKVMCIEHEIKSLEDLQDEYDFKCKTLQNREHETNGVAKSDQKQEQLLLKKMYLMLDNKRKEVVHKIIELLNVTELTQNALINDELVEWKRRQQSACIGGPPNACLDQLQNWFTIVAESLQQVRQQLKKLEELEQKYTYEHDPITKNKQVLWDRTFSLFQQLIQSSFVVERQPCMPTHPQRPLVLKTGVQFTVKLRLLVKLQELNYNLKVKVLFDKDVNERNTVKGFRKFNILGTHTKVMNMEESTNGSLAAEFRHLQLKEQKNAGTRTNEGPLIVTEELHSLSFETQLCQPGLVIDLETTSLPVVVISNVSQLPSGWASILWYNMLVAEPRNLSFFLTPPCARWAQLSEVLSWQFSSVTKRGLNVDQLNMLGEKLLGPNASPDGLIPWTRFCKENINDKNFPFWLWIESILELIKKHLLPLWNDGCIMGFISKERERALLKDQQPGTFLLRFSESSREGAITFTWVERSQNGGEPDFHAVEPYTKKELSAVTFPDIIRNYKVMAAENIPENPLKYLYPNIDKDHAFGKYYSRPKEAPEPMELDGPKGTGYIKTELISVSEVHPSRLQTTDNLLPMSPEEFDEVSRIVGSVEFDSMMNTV
In words: In vitro DNA-binding activity assay with EMSA, Stat1. As to conditions: hSIE probe, pre-incubation with compound. The class given is biochemical. The procedure:
as §1, §2

Assay [2] addresses T1, Stat3. Particulars: from reference 35; cited from earlier work.

T1 sequence (P40763 2-770 limits assumed, species assumed): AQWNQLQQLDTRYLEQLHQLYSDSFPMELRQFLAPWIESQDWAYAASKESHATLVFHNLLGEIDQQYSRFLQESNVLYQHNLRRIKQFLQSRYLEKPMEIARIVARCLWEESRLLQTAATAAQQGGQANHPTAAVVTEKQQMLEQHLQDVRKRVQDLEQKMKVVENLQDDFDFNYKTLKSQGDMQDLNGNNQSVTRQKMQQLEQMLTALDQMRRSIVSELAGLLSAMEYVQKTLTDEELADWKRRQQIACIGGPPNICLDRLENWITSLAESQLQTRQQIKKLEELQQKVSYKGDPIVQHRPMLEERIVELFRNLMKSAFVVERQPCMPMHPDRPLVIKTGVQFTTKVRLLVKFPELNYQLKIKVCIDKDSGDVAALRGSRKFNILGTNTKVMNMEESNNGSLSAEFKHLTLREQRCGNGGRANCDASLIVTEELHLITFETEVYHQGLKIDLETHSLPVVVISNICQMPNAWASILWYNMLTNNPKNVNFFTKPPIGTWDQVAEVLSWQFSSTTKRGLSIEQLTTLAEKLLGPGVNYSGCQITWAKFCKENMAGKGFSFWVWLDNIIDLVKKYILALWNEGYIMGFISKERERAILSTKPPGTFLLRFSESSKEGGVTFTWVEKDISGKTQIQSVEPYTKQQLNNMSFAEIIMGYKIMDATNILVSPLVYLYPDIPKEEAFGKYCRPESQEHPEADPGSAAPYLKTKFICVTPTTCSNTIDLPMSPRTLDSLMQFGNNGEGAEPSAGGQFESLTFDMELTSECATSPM
E2F1, sequence (Q01094 whole entry, species assumed): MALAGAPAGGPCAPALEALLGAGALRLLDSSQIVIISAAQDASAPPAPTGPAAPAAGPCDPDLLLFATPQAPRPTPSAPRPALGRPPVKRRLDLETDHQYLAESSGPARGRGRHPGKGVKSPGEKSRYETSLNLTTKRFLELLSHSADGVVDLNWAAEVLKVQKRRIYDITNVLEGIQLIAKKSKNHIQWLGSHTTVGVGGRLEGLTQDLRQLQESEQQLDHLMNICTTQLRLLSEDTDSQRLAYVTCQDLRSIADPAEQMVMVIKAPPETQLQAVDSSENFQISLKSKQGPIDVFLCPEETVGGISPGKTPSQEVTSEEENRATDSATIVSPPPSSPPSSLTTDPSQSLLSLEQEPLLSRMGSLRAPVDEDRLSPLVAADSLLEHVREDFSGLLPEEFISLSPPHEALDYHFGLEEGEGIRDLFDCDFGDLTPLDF

Turning to `N.N.[Cl][Pt][Cl]` [cisplatin, reference compound], at Stat3 [1], the “level of DNA-binding activity of Stat3” value is “no detectable effect”. In addition, the “level of DNA-binding activity of Stat5:Stat5 dimers” value with Stat5 is on record as “no detectable effect”. At E2F1, the “E2F1 DNA-binding activity” value is given as “no detectable effect”. Moreover, the “level of DNA-binding activity of Stat1” value at Stat1 was “no detectable effect”. The “effect on Stat3 activity” value on Stat3 [2] is listed as “no effect”.
